“Also recorded” adds a separate entry of the source.
Key:
neurofilament = test: Striatal degeneration: neurofilament intensity in R6/2 brain slices; assay type: cell-based, mouse; details: R6/2 slices at DIV21
Description: (§1) Transgenic mice expressing human Huntingtin Exon-1Q200 (R6/2 mouse model described in Davies et al., 1997) were housed in a temperature-controlled room and maintained on a 12 hr light/dark cycle. Food and water were available ad libitum and experiments were carried out in accordance with the local authorization guidelines for the care and use of laboratory animals. Slice cultures were established according to the procedure described by Stoppini and colleagues (Stoppini et al., 1991 and Gogolla et al., 2006) and a particular cutting angle was utilized to produce brain slices with a preserved cortico-striatal pathway. Finally, slices were selected, placed on Millicel (Millipore, PICM03050) and cultured in 6-well dishes at 35° C. and 5% CO2 in the presence of 1 ml of culture medium.
(§2) Slices were treated with different mTOR inhibitors from DIV14 to DIV21. The culture medium was exchanged every second day, and drugs were added in the fresh culture medium. […]
(§3) High resolution images were acquired on an upright Zeiss LSM700 confocal microscope, using a Plan-Neofluar 40×/1.3 oil immersion objective. For the quantification of the PolyQ density and DARPP-32/NeuF signal intensity, at least three confocal 3D stacks/slice were acquired in striatum for each experiment (five slices per condition), and analyzed using Imaris 4.2 (Bitplane AG) and Image J softwares.
(§4) All data are expressed as mean±SEM. […]

LC3-II/I conversion = test: Autophagy induction (LC3-II/I conversion) by Western blot in R6/2 brain slices; assay type: cell-based; details: R6/2 slices treated DIV14 to DIV21, analysed at DIV21
Description: as §1
Slices were treated with different mTOR inhibitors from DIV14 to DIV21. The culture medium was exchanged every second day, and drugs were added in the fresh culture medium. We used this protocol to evaluate the action of the following mTOR inhibitors: BEZ235 (50 and 300 nM in DMSO), RAD001 (250 nM in DMSO), CCG168 (300 nM in DMSO), RAD001+BEZ235 (250 10, 250 30 and 250 50 nM in DMSO) and RAD001'CCG168 (250 and 50 nM in DMSO).
Slices were washed in PBS and lysed in 1% Triton X-100/PBS containing Complete Mini (Roche, #04693124001) and PhosSTOP (Roche, #04906837001). Lysates were ultrasonicated and analysed by Western blotting for B-actin (Sigma, #A5441), pS6 Ser 240/244 (Cell Signalling, #2215), and LC3B (Cell Signalling, #2775). Immunoblots were developed with ECL detection reagent (Amersham Biosciences).

DARPP-32 = test: Striatal degeneration: DARPP-32 intensity in R6/2 brain slices; assay type: cell-based, mouse; details: R6/2 slices at DIV21
Description: as §1, §2, §3, §4

p-S6 S240/244 = test: mTORC1 activity (p-S6 S240/244) by Western blot in R6/2 brain slices; assay type: cell-based, mouse; details: R6/2 slices treated DIV14 to DIV21, analysed at DIV21
mTOR = mTOR (Homo sapiens, UniProt P42345); details: low concentration; Serra et al., 2008; cited from earlier work
PI3K/mTOR = details: relatively higher concentrations; Serra et al., 2008; cited from earlier work
polyQ inclusions = test: polyQ density by immunohistochemistry in R6/2 brain slices; assay type: cell-based, mouse; details: R6/2 slices at DIV21, vs control R6/2
Description: as §1, §2, §3, §4

[1] = single low-concentration (50 nM)
[2] = single low-concentration (250 nM)

| SMILES | preservation of neurofilament level (neurofilament; [1]) | LC3-II/I conversion (autophagy induction) (LC3-II/I conversion; 50 nM) | LC3-II/I conversion (autophagy induction) (LC3-II/I conversion; 300 nM) | preservation of DARPP-32 level (DARPP-32; [1]) | p-S6 S240/244 level (p-S6 S240/244; 50 nM) | concentration at which mTOR inhibition predominates (mTOR) | concentration giving dual PI3K/mTOR inhibition (PI3K/mTOR) | polyQ density (polyQ inclusions; 50 nM) | preservation of neurofilament level (neurofilament; [2]) | LC3-II/I conversion (autophagy induction) (LC3-II/I conversion; 250 nM) | preservation of DARPP-32 level (DARPP-32; [2]) | p-S6 S240/244 level (p-S6 S240/244; 250 nM) | polyQ density (polyQ inclusions; 250 nM) |
| --- | --- | --- | --- | --- | --- | --- | --- | --- | --- | --- | --- | --- | --- |
| Cn1c(=O)n(-c2ccc(C(C)(C)C#N)cc2)c2c3cc(-c4cnc5ccccc5c4)ccc3ncc21 [BEZ235, 2-methyl-2-[4-(3-methyl-2-oxo-8-quinolin-3-yl-2,3-dihydro-imidazo[4,5-c]quinolin-1-yl)-phenyl]-propionitrile] | ineffective | no effect | induced autophagy; also recorded: reached similar efficacy | ineffective | did not reduce | less than 100 nmol/L | approximately 500 nmol/L | no effect |  |  |  |  |  |
| COc1ccc(-c2ccc3c(N4CCOC[C@@H]4C)nc(N4CCOC[C@@H]4C)nc3n2)cc1CO [CCG168, {5-[2,4-bis-((S)-3-methyl-morpholin-4-yl)-pyrido[2,3d]pyrimidin-7-yl]-2-methoxy-phenyl}-methanol] |  |  | induced autophagy; also recorded: reached similar efficacy |  |  |  |  |  |  |  |  |  |  |
| CO[C@H]1C[C@@H]2CC[C@@H](C)[C@@](O)(O2)C(=O)C(=O)N2CCCC[C@H]2C(=O)O[C@H]([C@H](C)C[C@@H]2CC[C@@H](OCCO)[C@H](OC)C2)CC(=O)[C@H](C)/C=C(\C)[C@@H](O)[C@@H](OC)C(=O)[C@H](C)C[C@H](C)/C=C/C=C/C=C/1C [RAD001, (1R,9S,12S,15R,16E,18R,19R,21R,23S,24E,26E,28E,30S,32S,35R)-1,18-dihydroxy-12-{(1R)-2-[(1S,3R,4R)-4-(2-hydroxyethoxy)-3-methoxycyclohexyl]-1-methylethyl}-19,30-dimethoxy-15,17,21,23,29,35-hexamethyl-11,36-dioxa-4-aza-tricyclo[30.3.1.0^4,9]hexatriaconta-16,24,26,28-tetraene-2,3,10,14,20-pentaone] |  |  |  |  |  |  |  |  | ineffective | no effect | ineffective | reduced | no effect |

Source: patent publication US9358236B2, “Combinations of therapeutic agents for use in the treatment of neurodegenerative diseases” (Novartis AG, priority 2011, dated 2016)
